Experiment [1] concerns the target T1, human GPR43 receptor (hGPR43) (Homo sapiens, UniProt O15552).
T1 construct: expressed in transfected cells
T1 sequence (O15552 1-330): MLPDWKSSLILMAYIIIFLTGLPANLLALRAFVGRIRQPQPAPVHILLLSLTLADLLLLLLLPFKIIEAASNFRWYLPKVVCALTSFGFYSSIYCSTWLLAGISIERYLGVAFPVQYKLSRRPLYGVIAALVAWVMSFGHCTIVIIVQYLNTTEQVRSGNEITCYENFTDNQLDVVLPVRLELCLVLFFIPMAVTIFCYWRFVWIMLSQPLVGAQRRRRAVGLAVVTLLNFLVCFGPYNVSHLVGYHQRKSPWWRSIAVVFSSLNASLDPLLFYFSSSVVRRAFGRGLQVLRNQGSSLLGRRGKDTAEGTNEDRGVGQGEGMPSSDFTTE
The experiment in a line: GTPγS binding assay (SPA method). In kind it is biochemical. As to conditions: membranes expressing hGPR43; assay performed in the presence of SCFA; read-out: EC50 (nM) in GTPγ35S assay. The method, boiled down: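 Membranes (5 μg) from hGPR43-expressing cells were incubated 30 min at room temperature with [35S]GTPγS, compounds (30 μM to 1 nM) and WGA SPA beads. Buffer was 20 mM HEPES pH 7.4, 100 mM NaCl, 10 μg/ml saponin, 30 mM MgCl2 and 10 μM GDP, with SCFA present. Bound label was read by scintillation counting.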

Experiment [2] relates to adipocytes isolated from normal rats. As to the kind of experiment: Lipolysis assay in isolated adipocytes (normal rats). In kind it is cell-based. The settings on record: adipocytes isolated from normal rats (FIGS. 6 and 7). On the procedure: Isolated adipocytes were diluted to 5% in KRH-buffer and were pre-treated with compound of the invention (30 μM, 10 μM and 1 μM) for 30 min at 37° C./120 rpm. After the pre-treatment, Isoprenaline (1 μM) was added to the adipocytes followed by 30 min incubation at 37° C./150 rpm. The reactions were put on ice and the buffer was assayed spectrophotometrically for the production of […] from glycerol breakdown in reactions catalyzed by glycerol kinase and glycerol-3-phosphate dehydrogenase and/or Non Esterified Fatty Acid (NEFA). Each data point was investigated in triplicates in two independent experiments.

EC50 and isoprenaline-induced lipolysis data for 28 compounds are collected here from patent US20110230477A1, “COMPOUNDS, PHARMACEUTICAL COMPOSITION AND METHODS FOR USE IN TREATING METABOLIC DISORDERS” (Euroscreen S.A., priority 2008, published 2011).

The EC50 is the concentration at which the effect is half-maximal.

On to `COc1ccc(-c2ccccc2-c2csc(N(C)C(=O)[C@@H](CC(=O)O)CC3CCCC3)n2)cn1` [Compound 139, (R)-3-(cyclopentylmethyl)-4-((4-(2-(6-methoxypyridin-3-yl)phenyl)thiazol-2-yl)(methyl)amino)-4-oxobutanoic acid], for which the EC50 in experiment [1] is 38 nM. The isoprenaline-induced lipolysis entry in experiment [2] is “inhibit”.

For `CC(C)[C@H](CC(=O)O)C(=O)N(C)c1nc(-c2ccccc2Cl)cs1` [Compound 94, (S)-3-((4-(2-chlorophenyl)thiazol-2-yl)(methyl)carbamoyl)-4-methylpentanoic acid], in experiment [1], the EC50 amounted to 200 nM.

Consider `O=C(O)C[C@@H](Cc1ccccc1)C(=O)Nc1cc(-c2cccc(C(F)(F)F)c2)n[nH]1` [Compound 203, (R)-3-benzyl-4-oxo-4-((3-(3-(trifluoromethyl)phenyl)-1H-pyrazol-5-yl)amino)butanoic acid], for which, in experiment [1], the EC50 is 1780 nM.

In the case of `COc1ccc(-c2ccccc2-c2csc(N(C)C(=O)[C@@H](CC(=O)O)Cc3ccccc3)n2)cn1` [Compound 116, (R)-3-benzyl-4-((4-(2-(6-methoxypyridin-3-yl)phenyl)thiazol-2-yl)(methyl)amino)-4-oxobutanoic acid], the EC50 in experiment [1] amounted to 175 nM.

In the case of `CN(C(=O)[C@@H](CC(=O)O)Cc1ccccc1)c1nc(-c2ccccc2-c2ccc(N3CCOCC3)nc2)cs1` [Compound 133, (R)-3-benzyl-4-(methyl(4-(2-(6-morpholinopyridin-3-yl)phenyl)thiazol-2-yl)amino)-4-oxobutanoic acid], in experiment [1], the EC50 came out at 241 nM.

As to `O=C(O)C[C@@H](CC1CCCC1)C(=O)N(CCO)c1nc(-c2cc(Cl)ccc2Cl)cs1` [Compound 172, (R)-3-(cyclopentylmethyl)-4-((4-(2,5-dichlorophenyl)thiazol-2-yl)(2-hydroxyethyl)amino)-4-oxobutanoic acid], the EC50 in experiment [1] stood at 355 nM.

In the case of `CN(C(=O)[C@@H](CC(=O)O)Cc1ccccc1)c1nc(-c2cccc(OC(F)F)c2)cs1` [Compound 164, (R)-3-benzyl-4-((4-(3-(difluoromethoxy)phenyl)thiazol-2-yl)(methyl)amino)-4-oxobutanoic acid], the EC50 in experiment [1] was 161 nM.

As for `O=C(O)C[C@@H](Cc1ccccc1)C(=O)Nc1nc(-c2ccc(Cl)c(Cl)c2)cs1` [Compound 5, (R)-3-benzyl-4-(4-(3,4-dichlorophenyl)thiazol-2-ylamino)-4-oxobutanoic acid], in experiment [1], the EC50 was 292 nM.

For `Cc1cc(CC(CC(=O)O)C(=O)N(C)c2nc(-c3ccccc3Cl)cs2)no1` (stereo not drawn) [Compound 210, 4-((4-(2-chlorophenyl)thiazol-2-yl)(methyl)amino)-3-((5-methylisoxazol-3-yl)methyl)-4-oxobutanoic acid], the EC50 in experiment [1] stood at 2680 nM.

For the compound `CN(C(=O)[C@@H](CC(=O)O)Cc1ccccc1)c1nc(-c2ccccc2Cl)ns1` [Compound 83, (R)-3-benzyl-4-((3-(2-chlorophenyl)-1,2,4-thiadiazol-5-yl)(methyl)amino)-4-oxobutanoic acid], the EC50 in experiment [1] was found to be 98 nM.

As to `CN(C(=O)[C@H]1CCCC[C@H]1C(=O)O)c1nc(-c2ccccc2Cl)cs1` (relative stereo) [Compound 101, cis-2-((4-(2-chlorophenyl)thiazol-2-yl)(methyl)carbamoyl)cyclohexanecarboxylic acid], in experiment [1], the EC50 was 67 nM.

`N#Cc1ccc(-c2csc(NC(=O)[C@@H](CC(=O)O)Cc3ccccc3)n2)cc1` [Compound 8, (R)-3-benzyl-4-(4-(4-cyanophenyl)thiazol-2-ylamino)-4-oxobutanoic acid]: the EC50 in experiment [1] was found to be 563 nM.

On to `CN(C(=O)[C@@H](CC(=O)O)Cc1ccccc1)c1nc(-c2ccccc2-c2cnc3c(c2)CCC(=O)N3C)cs1` [Compound 216, (R)-3-benzyl-4-(methyl(4-(2-(8-methyl-7-oxo-5,6,7,8-tetrahydro-1,8-naphthyridin-3-yl)phenyl)thiazol-2-yl)amino)-4-oxobutanoic acid], for which the EC50 in experiment [1] came to 341 nM.

On to `CN(C(=O)[C@@H](CC(=O)O)Cc1ccccc1)c1nc(-c2ccccc2-c2ccc(OCc3ccccc3)nc2)cs1` [Compound 158, (R)-3-benzyl-4-((4-(2-(6-(benzyloxy)pyridin-3-yl)phenyl)thiazol-2-yl)(methyl)amino)-4-oxobutanoic acid], for which, in experiment [1], the EC50 is 49 nM.

Take `CN(C(=O)C(CC(=O)O)Cc1ccco1)c1nc(-c2ccccc2Cl)cs1` (stereo not drawn) [Compound 143]: in experiment [1], the EC50 came to 77 nM.

`COc1ncc(-c2ccc(Cl)cc2-c2csc(N(C(=O)[C@@H](CC(=O)O)CC3CCCC3)C3CC3)n2)cc1F` [Compound 224, (R)-4-((4-(5-chloro-2-(5-fluoro-6-methoxypyridin-3-yl)phenyl)thiazol-2-yl)(cyclopropyl)amino)-3-(cyclopentylmethyl)-4-oxobutanoic acid]: the EC50 in experiment [1] was 27 nM.

With `COC(=O)CN(C(=O)[C@@H](CC(=O)O)Cc1ccccc1)c1nc(-c2ccccc2Cl)cs1` [Compound 23, (R)-3-benzyl-4-((4-(2-chlorophenyl)thiazol-2-yl)(2-methoxy-2-oxoethyl)amino)-4-oxobutanoic acid], the EC50 in experiment [1] is 327 nM.

On to `CN(C(=O)[C@@H](CC(=O)O)Cc1ccccc1)c1nc(-c2ccccc2C2CC2)cs1` [Compound 144, (R)-3-benzyl-4-((4-(2-cyclopropylphenyl)thiazol-2-yl)(methyl)amino)-4-oxobutanoic acid], for which, in experiment [1], the EC50 came to 897 nM.

In the case of `O=C(O)C[C@@H](Cc1ccccc1)C(=O)Nc1ccc(-c2ccccc2Cl)c[n+]1[O-]` [Compound 196, (R)-2-(2-benzyl-3-carboxypropanamido)-5-(2-chlorophenyl)pyridine 1-oxide], the EC50 in experiment [1] came to 1830 nM.

On to `CN(C(=O)[C@@H](CC(=O)O)Cc1ccccc1)c1nc(-c2ccccc2-c2ccc(C#N)cc2)cs1` [Compound 206, (R)-3-benzyl-4-((4-(4′-cyano-[1,1′-biphenyl]-2-yl)thiazol-2-yl)(methyl)amino)-4-oxobutanoic acid], for which the EC50 in experiment [1] worked out at 2320 nM.

Take `CN(C(=O)[C@@H](CC(=O)O)Cc1ccccc1)c1nc(-c2ccccc2-c2ccc(Cl)nc2)cs1` [Compound 108, (R)-3-benzyl-4-((4-(2-(6-chloropyridin-3-yl)phenyl)thiazol-2-yl)(methyl)amino)-4-oxobutanoic acid]: in experiment [1], the concentration for a half-maximal effect (EC50) stood at 305 nM.

As to `O=C(O)C[C@@H](Cc1ccccc1)C(=O)Nc1nc(-c2ccccc2F)cs1` [Compound 4, (R)-3-benzyl-4-(4-(2-fluorophenyl)thiazol-2-ylamino)-4-oxobutanoic acid], the EC50 in experiment [1] stood at 759 nM.

On to `O=C(O)C[C@@H](Cc1ccccc1)C(=O)N(CCCO)c1nc(-c2ccccc2Cl)cs1` [Compound 156, (R)-3-benzyl-4-((4-(2-chlorophenyl)thiazol-2-yl)(3-hydroxypropyl)amino)-4-oxobutanoic acid], for which, in experiment [1], the EC50 was found to be 867 nM.

For the compound `O=C(O)C1CC=CCC1C(=O)Nc1nc(-c2ccccc2Cl)cs1` (stereo not drawn) [Compound 1, 6-(4-(2-chlorophenyl)thiazol-2-ylcarbamoyl)cyclohex-3-enecarboxylic acid], in experiment [1], the EC50 came to 109 nM.

For the compound “(3R)-4-((4-(2-chlorophenyl)thiazol-2-yl)(methyl)amino)-4-oxo-3-((tetrahydrofuran-2-yl)methyl)butanoic acid [Compound 155]”, in experiment [1], the EC50 was 94 nM. Besides, the isoprenaline-induced lipolysis entry in experiment [2] was “inhibit”.

With `C[C@@H](O)CN(C(=O)[C@@H](CC(=O)O)Cc1ccccc1)c1nc(-c2ccccc2Cl)cs1` [Compound 246, (R)-3-benzyl-4-((4-(2-chlorophenyl)thiazol-2-yl)((R)-2-hydroxypropyl)amino)-4-oxobutanoic acid], the EC50 in experiment [1] is 628 nM.

For `O=C(O)C[C@@H](Cc1ccccc1)C(=O)Nc1nc(-c2cc(Cl)ccc2Cl)cs1` [Compound 123, (R)-3-benzyl-4-((4-(2,5-dichlorophenyl)thiazol-2-yl)amino)-4-oxobutanoic acid], the EC50 in experiment [1] was found to be 134 nM.

Regarding `COCCN(C(=O)[C@@H](CC(=O)O)Cc1ccccc1)c1nc(-c2ccccc2Cl)cs1` [Compound 199, (R)-3-benzyl-4-((4-(2-chlorophenyl)thiazol-2-yl)(2-methoxyethyl)amino)-4-oxobutanoic acid], in experiment [1], the EC50 is 1380 nM.
